# Data: patent US20090176817A1, “Method of Treatment of Diarrhea-Predominant Irritable Bowel Syndrome in a Subject” (priority 2005, published 2009)
# Test system: diarrhea-predominant IBS subjects
# Assay: Study S241.3.006: weekly diary questions on adequate relief
# Type: in vivo, human
# Conditions: for Number of months a subject was a responder: One month (Abdominal pain/discomfort) / Number of months a subject was a responder: One month (Abnormal bowel habits) / Number of months a subject was a responder: One month (IBS symptoms) / Number of months a subject was a responder: Three months (Abdominal pain/discomfort) / Number of months a subject was a responder: Three months (Abnormal bowel habits) / Number of months a subject was a responder: Three months (IBS symptoms) / Number of months a subject was a responder: Two months (Abdominal pain/discomfort) / Number of months a subject was a responder: Two months (Abnormal bowel habits) / Number of months a subject was a responder: Two months (IBS symptoms) / Number of months a subject was a responder: Zero months (Abdominal pain/discomfort) / Number of months a subject was a responder: Zero months (Abnormal bowel habits) / Number of months a subject was a responder: Zero months (IBS symptoms): monthly LOCF
# Method: The study was conducted in 129 study centers in the United States. At total of 2080 subjects consented to participate, and 711 subjects were randomized. A total of 692 subjects were analyzed for efficacy and 701 subjects were analyzed for safety. Diagnosis and main criteria for inclusion were IBS subjects satisfying the Rome I criteria (1992); the diarrhea predominant sub-population of the Rome II criteria; and a minimum abdominal pain/discomfort, stool frequency and consistency determined during the run-in period. Subjects were treated with cilansetron 2 mg tablets given orally TID or matching placebo tablets given orally TID for 12 weeks double-blind treatment.
# The primary efficacy parameter was the number of months that a subject was a responder for IBS symptoms (abdominal pain, abdominal discomfort, abnormal bowel habits) over the 12-week treatment period. A responder for a month (monthly responder) was defined as a subject who answered the weekly question with “yes” at least twice for that month.
# Studies S24 1.3.OO6, S24 1.3.0 1 1, and S24 1.3.009 used the following efficacy measurements: • The subjects answered the following three questions with “yes” or “no” using a phone diary at the end of each week: • a) During the last week, did you experience adequate relief of your IBS symptoms, such as abdominal pain, abdominal discomfort, abnormal bowel habits? • b) During the last week, did you experience adequate relief of your abdominal pain and/or discomfort? • c) During the last week, did you experience adequate relief of your abnormal bowel habits? • The subjects rated the following symptoms using the phone diary at the end of each day: • abdominal pain/discomfort (five-point scale); • stool consistency (seven-point Bristol Stool Scale); • stool frequency (number of bowel movements each day); • urgency (five-point scale); • straining (yes or no); • feeling of incomplete defecation (yes or no); • bloating or feeling of abdominal distension (five-point scale). • In Studies S241 A006 and S241.3.009, subjects completed the IBS-QOL Survey at Baseline (Day 1) and at the end of treatment. In Study S24 1.3.0 1 1, subjects completed the IBS-QOL Survey at Baseline (Day 1), at the end of the three-month treatment period, and at the end of rerandomized treatment.
# In all three pivotal efficacy studies, the primary and main secondary efficacy parameters were based on the weekly diary questions on adequate relief and included the following: • 1. Number of months (one month equals four weeks) that a subject was a responder for the weekly diary questions on adequate relief. A responder for a month (monthly responder) was defined as a subject who answered the weekly question with “yes” at least twice for that month. For Studies S241.3.006 and S241.3.011, the primary efficacy parameter was the number of months that a subject was a responder for IBS symptoms during the 12-week treatment period. The two main secondary efficacy parameters were the number of months that a subject was a responder for abdominal pain/discomfort and abnormal bowel habits during the 12-week treatment period. For Study S241.3.009, the number of months that a subject was a responder for the weekly diary questions on adequate relief during Months 1 to 3 (the first 12 weeks) and Months 1 to 6 (24-week) was an additional key secondary efficacy parameter. • 2. Overall responder rate for the weekly diary questions on adequate relief. A responder was defined as a subject who answered the weekly question with “yes” for at least half of the answers available with a minimum of four weeks treatment duration. If a subject had less than four weeks treatment duration, the subject was considered a non-responder. The overall responder rate was the percentage of responders within a treatment group. For Study S241.3.009, the primary efficacy parameter was the overall responder rate for IBS symptoms during the 26-week treatment period. […]
# [1] = Duration of IBS: >24 months to ≦48 months, 2 mg TID, observed case, ITT
# [2] = Duration of IBS: >24 months to ≦48 months, three-month treatment period, ITT, 2 mg TID
# [3] = Duration of IBS: >48 months to ≦120 months, 2 mg TID, observed case, ITT
# [4] = Duration of IBS: >48 months to ≦120 months, three-month treatment period, ITT, 2 mg TID
# [5] = Duration of IBS: >120 months, 2 mg TID, observed case, ITT
# [6] = Duration of IBS: >120 months, three-month treatment period, ITT, 2 mg TID
# [7] = Duration of IBS: ≦24 months, 2 mg TID, observed case, ITT
structure (smiles),measurement,setting,value
"Cc1nccn1C[C@H]1CCc2c(c3cccc4c3n2CCC4)C1=O [Cilansetron, (R)-(−)-4,5,6,8,9,10-hexahydro-10-[(2-methyl-1H-imidazol-1-yl)methyl]-11H-pyrido-[3,2,1-jk]-carbazol-11-one]","Overall responder rate, adequate relief of abnormal bowel habits","Baseline severity of IBS: severe, three-month treatment period, observed case, ITT, 2 mg TID",90 (46) n (%)
same,"Overall responder rate, abdominal pain/discomfort",Caucasians,52%
same,Number of subjects who were responders during the three-month treatment period: Adequate relief of IBS symptoms,[1],20 (47) n (%)
same,Number of subjects who were responders during the three-month treatment period: Adequate relief of abdominal pain/discomfort,[1],22 (51) n (%)
same,Number of subjects who were responders during the three-month treatment period: Adequate relief of abnormal bowel habits,[1],20 (47) n (%)
same,Number of months a subject was a responder: One month (Abdominal pain/discomfort),[2],8 (19) n (%)
same,Number of months a subject was a responder: One month (Abnormal bowel habits),[2],10 (23) n (%)
same,Number of months a subject was a responder: One month (IBS symptoms),[2],12 (28) n (%)
same,Number of months a subject was a responder: Three months (Abdominal pain/discomfort),[2],15 (35) n (%)
same,Number of months a subject was a responder: Three months (Abnormal bowel habits),[2],13 (30) n (%)
same,Number of months a subject was a responder: Three months (IBS symptoms),[2],14 (33) n (%)
same,Number of months a subject was a responder: Two months (Abdominal pain/discomfort),[2],6 (14) n (%)
same,Number of months a subject was a responder: Two months (Abnormal bowel habits),[2],7 (16) n (%)
same,Number of months a subject was a responder: Two months (IBS symptoms),[2],4 (9) n (%)
same,Number of months a subject was a responder: Zero months (Abdominal pain/discomfort),[2],14 (33) n (%)
same,Number of months a subject was a responder: Zero months (Abnormal bowel habits),[2],13 (30) n (%)
same,Number of months a subject was a responder: Zero months (IBS symptoms),[2],13 (30) n (%)
same,Number of subjects who were responders during the three-month treatment period: Adequate relief of IBS symptoms,[3],54 (52) n (%)
same,Number of subjects who were responders during the three-month treatment period: Adequate relief of abdominal pain/discomfort,[3],58 (56) n (%)
same,Number of subjects who were responders during the three-month treatment period: Adequate relief of abnormal bowel habits,[3],54 (52) n (%)
same,Number of months a subject was a responder: One month (Abdominal pain/discomfort),[4],12 (12) n (%)
same,Number of months a subject was a responder: One month (Abnormal bowel habits),[4],12 (12) n (%)
same,Number of months a subject was a responder: One month (IBS symptoms),[4],15 (14) n (%)
same,Number of months a subject was a responder: Three months (Abdominal pain/discomfort),[4],40 (38) n (%)
same,Number of months a subject was a responder: Three months (Abnormal bowel habits),[4],37 (36) n (%)
same,Number of months a subject was a responder: Three months (IBS symptoms),[4],35 (34) n (%)
same,Number of months a subject was a responder: Two months (Abdominal pain/discomfort),[4],18 (17) n (%)
same,Number of months a subject was a responder: Two months (Abnormal bowel habits),[4],19 (18) n (%)
same,Number of months a subject was a responder: Two months (IBS symptoms),[4],19 (18) n (%)
same,Number of months a subject was a responder: Zero months (Abdominal pain/discomfort),[4],34 (33) n (%)
same,Number of months a subject was a responder: Zero months (Abnormal bowel habits),[4],36 (35) n (%)
same,Number of months a subject was a responder: Zero months (IBS symptoms),[4],35 (34) n (%)
same,Number of subjects who were responders during the three-month treatment period: Adequate relief of IBS symptoms,[5],69 (47) n (%)
same,Number of subjects who were responders during the three-month treatment period: Adequate relief of abdominal pain/discomfort,[5],72 (49) n (%)
same,Number of subjects who were responders during the three-month treatment period: Adequate relief of abnormal bowel habits,[5],73 (50) n (%)
same,Number of months a subject was a responder: One month (Abdominal pain/discomfort),[6],15 (10) n (%)
same,Number of months a subject was a responder: One month (Abnormal bowel habits),[6],14 (10) n (%)
same,Number of months a subject was a responder: One month (IBS symptoms),[6],13 (9) n (%)
same,Number of months a subject was a responder: Three months (Abdominal pain/discomfort),[6],59 (40) n (%)
same,Number of months a subject was a responder: Three months (Abnormal bowel habits),[6],57 (39) n (%)
same,Number of months a subject was a responder: Three months (IBS symptoms),[6],51 (35) n (%)
same,Number of months a subject was a responder: Two months (Abdominal pain/discomfort),[6],19 (13) n (%)
same,Number of months a subject was a responder: Two months (Abnormal bowel habits),[6],19 (13) n (%)
same,Number of months a subject was a responder: Two months (IBS symptoms),[6],22 (15) n (%)
same,Number of months a subject was a responder: Zero months (Abdominal pain/discomfort),[6],53 (36) n (%)
same,Number of months a subject was a responder: Zero months (Abnormal bowel habits),[6],56 (38) n (%)
same,Number of months a subject was a responder: Zero months (IBS symptoms),[6],60 (41) n (%)
same,Number of subjects who were responders during the three-month treatment period: Adequate relief of IBS symptoms,[7],25 (49) n (%)
same,Number of subjects who were responders during the three-month treatment period: Adequate relief of abdominal pain/discomfort,[7],27 (53) n (%)
